What was measured:
Assay type in all cases: in vivo
[1] = system: barnyardgrass (Echinochloa crus-galli); experiment: Test B flooded paddy test; settings: for Plant response rating, Flood, Barnyardgrass: 250 g ai/ha, flooded paddy test, visual rating on 0 to 100 scale (0 no effect, 100 complete control) after 13 to 15 days; for Plant response rating, Barnyardgrass: Flood (flooded paddy test), 13 to 15 days
Outline: (§1)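 Visual scores run from 0 (no effect) to 100 (complete control), assigned by comparison with controls 13 to 15 days after treatment. Test compounds went straight into water standing 3 cm above the soil, around plants at the 2-leaf stage kept in a greenhouse.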

[2] = system: rice (Oryza sativa); experiment: Test B flooded paddy test; settings: for Plant response rating, Flood, Rice: 250 g ai/ha, flooded paddy test, visual rating on 0 to 100 scale (0 no effect, 100 complete control) after 13 to 15 days; for Plant response rating, Rice: Flood (flooded paddy test), 13 to 15 days
Outline: as §1

[3] = system: umbrella sedge (Cyperus difformis); experiment: Test B flooded paddy test; settings: for Plant response rating, Flood, Sedge, Umbrella: 250 g ai/ha, flooded paddy test, visual rating on 0 to 100 scale (0 no effect, 100 complete control) after 13 to 15 days; for Plant response rating, Sedge, Umbrella: Flood (flooded paddy test), 13 to 15 days
Outline: as §1

[4] = system: ducksalad (Heteranthera limosa); experiment: Test B flooded paddy test; settings: for Plant response rating, Flood, Ducksalad: 250 g ai/ha, flooded paddy test, visual rating on 0 to 100 scale (0 no effect, 100 complete control) after 13 to 15 days; for Plant response rating, Ducksalad: Flood (flooded paddy test), 13 to 15 days
Outline: as §1

[5] = system: corn (Zea mays); experiment: Test A pre-/postemergence plant response
Description: (§2) Seeds of barnyardgrass (Echinochloa crus-galli), large crabgrass (Digitaria sanguinalis), giant foxtail (Setaria faberii), morningglory (Ipomoea spp.), pigweed (Amaranthus retroflexus), velvetleaf (Abutilon theophrasti), wheat (Triticum aestivum) and corn (Zea mays) were planted into a blend of loam soil and sand and treated preemergence with a directed soil spray using test chemicals formulated in a non-phytotoxic solvent mixture which included a surfactant. At the same time these species were also treated with postemergence applications of test compounds formulated in the same manner.
(§3) Plants ranged in height from two to ten cm and were in the one- to two-leaf stage for the postemergence treatment. Treated plants and untreated controls were maintained in a greenhouse for approximately ten days, after which time all treated plants were compared to untreated controls and visually evaluated for injury. Plant response ratings, summarized in Table A, are based on a 0 to 100 scale where 0 is no effect and 100 is complete control. A dash (-) response means no test result.

[6] = system: barnyardgrass (Echinochloa crus-galli); experiment: Test A pre-/postemergence plant response
Description: as §2, §3

[7] = system: pigweed (Amaranthus retroflexus); experiment: Test A pre-/postemergence plant response
Description: as §2, §3

[8] = system: large crabgrass (Digitaria sanguinalis); experiment: Test A pre-/postemergence plant response
Description: as §2, §3

[9] = system: giant foxtail (Setaria faberii); experiment: Test A pre-/postemergence plant response
Description: as §2, §3

[10] = system: wheat (Triticum aestivum); experiment: Test A pre-/postemergence plant response
Description: as §2, §3

[11] = system: morningglory (Ipomoea spp.); experiment: Test A pre-/postemergence plant response
Description: as §2, §3

[12] = system: velvetleaf (Abutilon theophrasti); experiment: Test A pre-/postemergence plant response
Description: as §2, §3

[13] = 62 g ai/ha, scale of 0 to 100 where 0 is no effect and 100 is complete control
[14] = 125 g ai/ha, scale 0 to 100, 0 is no effect, 100 is complete control
[15] = Flood, 31 g ai/ha, scale 0 to 100 (0 no effect, 100 complete control)
[16] = Postemergence, 125 g ai/ha, 0 to 100 scale where 0 is no effect and 100 is complete control
[17] = Postemergence, 500 g ai/ha, 0 to 100 scale, 0 = no effect, 100 = complete control, approx. ten days
[18] = Preemergence, 125 g ai/ha, 0 to 100 scale, 0 = no effect, 100 = complete control
[19] = Preemergence, 500 g ai/ha, visual injury, 0 to 100 scale (0 no effect, 100 complete control), approx. ten days

Cc1cc(-n2c(-c3cccc(Br)c3)ncc(C(=O)C3=C(O)CCCC3=O)c2=O)ccc1F [Compound 132]
Plant response rating, Flood, Barnyardgrass [1]: 30
Plant response rating, Barnyardgrass [1, 13]: 0
Plant response rating, Barnyardgrass [1, 14]: 0
Barnyardgrass plant response rating [1, 15]: 0
Plant response rating, Flood, Rice [2]: 0
Plant response rating, Rice [2, 13]: 0
Plant response rating, Rice [2, 14]: 0
Rice plant response rating [2, 15]: 0
Plant response rating, Flood, Sedge, Umbrella [3]: 100
Plant response rating, Sedge, Umbrella [3, 13]: 0
Plant response rating, Sedge, Umbrella [3, 14]: 60
Sedge, Umbrella plant response rating [3, 15]: 0
Plant response rating, Flood, Ducksalad [4]: 100
Plant response rating, Ducksalad [4, 13]: 50
Plant response rating, Ducksalad [4, 14]: 80
Ducksalad plant response rating [4, 15]: 0
Plant response rating, Corn [5, 16]: 0
Plant response rating, Corn [5, 17]: 40
Plant response rating, Corn [5, 18]: 0
Plant response rating, Corn [5, 19]: 20
Plant response rating, Barnyardgrass [6, 16]: 10
Plant response rating, Barnyardgrass [6, 17]: 90
Plant response rating, Barnyardgrass [6, 18]: 10
Plant response rating, Barnyardgrass [6, 19]: 100
Plant response rating, Pigweed [7, 16]: 60
Plant response rating, Pigweed [7, 17]: 90
Plant response rating, Pigweed [7, 18]: 10
Plant response rating, Pigweed [7, 19]: 80
Plant response rating, Crabgrass, Large [8, 16]: 20
Plant response rating, Crabgrass, Large [8, 17]: 70
Plant response rating, Crabgrass, Large [8, 18]: 50
Plant response rating, Crabgrass, Large [8, 19]: 100
Plant response rating, Foxtail, Giant [9, 16]: 0
Plant response rating, Foxtail, Giant [9, 17]: 70
Plant response rating, Foxtail, Giant [9, 18]: 20
Plant response rating, Foxtail, Giant [9, 19]: 90
Plant response rating, Wheat [10, 16]: 0
Plant response rating, Wheat [10, 17]: 30
Plant response rating, Wheat [10, 18]: 0
Plant response rating, Wheat [10, 19]: 10
Plant response rating, Morningglory [11, 16]: 90
Plant response rating, Morningglory [11, 17]: 90
Plant response rating, Morningglory [11, 18]: 0
Plant response rating, Morningglory [11, 19]: 30
Plant response rating, Velvetleaf [12, 16]: 100
Plant response rating, Velvetleaf [12, 17]: 100
Plant response rating, Velvetleaf [12, 18]: 50
Plant response rating, Velvetleaf [12, 19]: 80

CCCn1c(-c2ccc(Br)cc2)ncc(C(=O)C2=C(O)CCCC2=O)c1=O [Compound 134]
Plant response rating, Flood, Barnyardgrass [1]: 0
Plant response rating, Barnyardgrass [1, 13]: 0
Plant response rating, Flood, Rice [2]: 0
Plant response rating, Rice [2, 13]: 0
Plant response rating, Flood, Sedge, Umbrella [3]: 0
Plant response rating, Sedge, Umbrella [3, 13]: 0
Plant response rating, Flood, Ducksalad [4]: 0
Plant response rating, Ducksalad [4, 13]: 0
Plant response rating, Corn [5, 16]: 0
Plant response rating, Corn [5, 17]: 20
Plant response rating, Corn [5, 18]: 0
Plant response rating, Corn [5, 19]: 0
Plant response rating, Barnyardgrass [6, 16]: 10
Plant response rating, Barnyardgrass [6, 17]: 60
Plant response rating, Barnyardgrass [6, 18]: 0
Plant response rating, Barnyardgrass [6, 19]: 10
Plant response rating, Pigweed [7, 16]: 70
Plant response rating, Pigweed [7, 17]: 80
Plant response rating, Pigweed [7, 18]: 0
Plant response rating, Pigweed [7, 19]: 60
Plant response rating, Crabgrass, Large [8, 16]: 50
Plant response rating, Crabgrass, Large [8, 17]: 80
Plant response rating, Crabgrass, Large [8, 18]: 0
Plant response rating, Crabgrass, Large [8, 19]: 30
Plant response rating, Foxtail, Giant [9, 16]: 40
Plant response rating, Foxtail, Giant [9, 17]: 70
Plant response rating, Foxtail, Giant [9, 18]: 0
Plant response rating, Foxtail, Giant [9, 19]: 30
Plant response rating, Wheat [10, 16]: 0
Plant response rating, Wheat [10, 17]: 0
Plant response rating, Wheat [10, 18]: 0
Plant response rating, Wheat [10, 19]: 0
Plant response rating, Morningglory [11, 16]: 0
Plant response rating, Morningglory [11, 17]: 60
Plant response rating, Morningglory [11, 19]: 30
Plant response rating, Velvetleaf [12, 16]: 100
Plant response rating, Velvetleaf [12, 17]: 100
Plant response rating, Velvetleaf [12, 18]: 70
Plant response rating, Velvetleaf [12, 19]: 70

From patent US8952024B2, “Herbicidal pyrimidone derivatives” (E I du Pont de Nemours and Company, priority 2009, dated 2015)
